Reference: US20260285850A1, “SUBSTITUTED OXAZOLIDINONES AND IMIDAZOLINONES AS HERBICIDES” (FMC CORPORATION, priority 2023, published 2026)

Columns and labels:
Assay type in all cases: in vivo
[1] = tested on: sedge, umbrella (small-flower umbrella sedge, Cyperus difformis); test: Test B flooded paddy test, visual plant response rating 0-100; conditions: 250 g ai/ha, Flood, applied to paddy water, evaluated after 13 days
How it was run: (§1)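 Plants were grown to the 2-leaf stage, then pots were flooded to 3 cm above the soil and test compounds were applied directly into the paddy water. Water depth was held there throughout; after 13 days in a greenhouse, injury was scored visually against untreated controls.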

[2] = tested on: barnyardgrass (Echinochloa crusgalli); test: as above; conditions: 250 g ai/ha, Flood, applied to paddy water, evaluated after 13 days
How it was run: as §1

[3] = tested on: ducksalad (Heteranthera limosa); test: as above; conditions: 250 g ai/ha, Flood, applied to paddy water, evaluated after 13 days
How it was run: as §1

rice (Oryza sativa) = test: as above; conditions: 250 g ai/ha, Flood, applied to paddy water, evaluated after 13 days
How it was run: as §1

[4] = tested on: blackgrass (Alopecurus myosuroides); test: Test A postemergence application, visual injury rating 0-100; conditions: 10 days
How it was run: (§2)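 Compounds formulated in a non-phytotoxic solvent with surfactant are sprayed onto soil of freshly planted loam-sand pots ahead of emergence, or onto emerged plants 2-10 cm tall. After a 10-day greenhouse period, each species is scored visually for injury against untreated controls.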

[5] = tested on: palmer (palmer amaranth, palmer pigweed, Amaranthus palmeri); test: as above; conditions: 10 days
How it was run: as §2

kochia (Bassia scoparia) [6] = test: as above; conditions: 10 days
How it was run: as §2

[7] = tested on: oat, wild (wild oat, Avena fatua); test: as above; conditions: 10 days
How it was run: as §2

[8] = tested on: barnyardgrass (Echinochloa crus-galli); test: as above; conditions: 10 days
How it was run: as §2

soybean (Glycine max) [9] = test: as above; conditions: 10 days
How it was run: as §2

[10] = tested on: green foxtail (Setaria viridis); test: as above; conditions: 10 days
How it was run: as §2

[11] = tested on: horseweed (Erigeron canadensis); test: as above; conditions: 10 days
How it was run: as §2

[12] = tested on: ragweed (common ragweed, Ambrosia artemisiifolia); test: as above; conditions: 10 days
How it was run: as §2

[13] = tested on: ryegrass, Italian (italian ryegrass, Lolium multiflorum); test: as above; conditions: 10 days
How it was run: as §2

[14] = tested on: galium (catchweed bedstraw, Galium aparine); test: as above; conditions: 10 days
How it was run: as §2

[15] = tested on: wheat (Triticum aestivum); test: as above; conditions: 10 days
How it was run: as §2

corn (Zea mays) [16] = test: as above; conditions: 10 days
How it was run: as §2

[17] = tested on: blackgrass (Alopecurus myosuroides); test: Test A preemergence soil spray, visual injury rating 0-100; conditions: 10 days, 0 = no effect, 100 = complete control
How it was run: as §2

[18] = tested on: palmer (palmer amaranth, palmer pigweed, Amaranthus palmeri); test: as above; conditions: 10 days, 0 = no effect, 100 = complete control
How it was run: as §2

kochia (Bassia scoparia) [19] = test: as above; conditions: 10 days, 0 = no effect, 100 = complete control
How it was run: as §2

[20] = tested on: oat, wild (wild oat, Avena fatua); test: as above; conditions: 10 days, 0 = no effect, 100 = complete control
How it was run: as §2

[21] = tested on: barnyardgrass (Echinochloa crus-galli); test: as above; conditions: 10 days, 0 = no effect, 100 = complete control
How it was run: as §2

soybean (Glycine max) [22] = test: as above; conditions: 10 days, 0 = no effect, 100 = complete control
How it was run: as §2

[23] = tested on: green foxtail (Setaria viridis); test: as above; conditions: 10 days, 0 = no effect, 100 = complete control
How it was run: as §2

[24] = tested on: ragweed (common ragweed, Ambrosia artemisiifolia); test: as above; conditions: 10 days, 0 = no effect, 100 = complete control
How it was run: as §2

[25] = tested on: ryegrass, Italian (italian ryegrass, Lolium multiflorum); test: as above; conditions: 10 days, 0 = no effect, 100 = complete control
How it was run: as §2

[26] = tested on: wheat (Triticum aestivum); test: as above; conditions: 10 days, 0 = no effect, 100 = complete control
How it was run: as §2

corn (Zea mays) [27] = test: as above; conditions: 10 days, 0 = no effect, 100 = complete control
How it was run: as §2

[28] = 31 g ai/ha, postemergence, 0 = no effect, 100 = complete control
[29] = Postemergence, 125 g ai/ha, 0 is no effect, 100 is complete control

CCOC(=O)C1CCC(NC(=O)C2(C)CN(c3cc(F)cc(Cl)c3)C(=O)O2)C1 (stereo not shown) [Compound 19]
100: Barnyardgrass plant response rating (0 to 100 scale) [8, 29] | Corn plant response rating (0 to 100 scale) (corn (Zea mays) [16]; [29])
20: Soybean plant response rating (0 to 100 scale) (soybean (Glycine max) [22]; 125 g ai/ha)
65: Plant response rating, Barnyardgrass (0 to 100 scale, 0 is no effect and 100 is complete control) [2]
10: Kochia plant response rating (0-100) (kochia (Bassia scoparia) [6]; [28]) | Corn plant response rating (0-100) (corn (Zea mays) [27]; 31 g ai/ha)
0: Plant response rating, Rice (0 to 100 scale, 0 is no effect and 100 is complete control) (rice (Oryza sativa)) | Horseweed plant response rating (0-100) [11, 28] | Horseweed plant response rating (0 to 100 scale) [11, 29] | Ragweed plant response rating (0-100) [12, 28] | Blackgrass plant response rating (0-100) ([17]; 31 g ai/ha) | Kochia plant response rating (0-100) (kochia (Bassia scoparia) [19]; 31 g ai/ha) | Oat, Wild plant response rating (0-100) ([20]; 31 g ai/ha) | Soybean plant response rating (0-100) (soybean (Glycine max) [22]; 31 g ai/ha) | Ragweed plant response rating (0-100) ([24]; 31 g ai/ha) | Ragweed plant response rating (0 to 100 scale) ([24]; 125 g ai/ha)
70: Plant response rating, Ducksalad (0 to 100 scale, 0 is no effect and 100 is complete control) [3] | Blackgrass plant response rating (0-100) [4, 28] | Kochia plant response rating (0 to 100 scale) (kochia (Bassia scoparia) [6]; [29]) | Wheat plant response rating (0-100) ([26]; 31 g ai/ha)
50: Soybean plant response rating (0-100) (soybean (Glycine max) [9]; [28]) | Corn plant response rating (0-100) (corn (Zea mays) [16]; [28]) | Blackgrass plant response rating (0 to 100 scale) ([17]; 125 g ai/ha) | Foxtail, Green plant response rating (0-100) ([23]; 31 g ai/ha) | Corn plant response rating (0 to 100 scale) (corn (Zea mays) [27]; 125 g ai/ha)
90: Blackgrass plant response rating (0 to 100 scale) [4, 29] | Amaranth, Palmer / Pigweed, Palmer plant response rating (0 to 100 scale) [5, 29] | Oat, Wild plant response rating (0-100) [7, 28] | Oat, Wild plant response rating (0 to 100 scale) [7, 29] | Foxtail, Green plant response rating (0 to 100 scale) [10, 29] | Ryegrass, Italian plant response rating (0-100) [13, 28] | Ryegrass, Italian plant response rating (0 to 100 scale) [13, 29] | Wheat plant response rating (0 to 100 scale) [15, 29] | Amaranth, Palmer plant response rating (0 to 100 scale) ([18]; 125 g ai/ha) | Kochia plant response rating (0 to 100 scale) (kochia (Bassia scoparia) [19]; 125 g ai/ha) | Foxtail, Green plant response rating (0 to 100 scale) ([23]; 125 g ai/ha) | Wheat plant response rating (0 to 100 scale) ([26]; 125 g ai/ha)
40: Foxtail, Green plant response rating (0-100) [10, 28] | Ragweed plant response rating (0 to 100 scale) [12, 29]
60: Plant response rating, Sedge, Umbrella (0 to 100 scale, 0 is no effect and 100 is complete control) [1] | Barnyardgrass plant response rating (0-100) [8, 28] | Soybean plant response rating (0 to 100 scale) (soybean (Glycine max) [9]; [29]) | Oat, Wild plant response rating (0 to 100 scale) ([20]; 125 g ai/ha)
80: Galium plant response rating (0-100) [14, 28] | Galium plant response rating (0 to 100 scale) [14, 29] | Wheat plant response rating (0-100) [15, 28] | Barnyardgrass plant response rating (0 to 100 scale) ([21]; 125 g ai/ha) | Ryegrass, Italian plant response rating (0-100) ([25]; 31 g ai/ha) | Ryegrass, Italian plant response rating (0 to 100 scale) ([25]; 125 g ai/ha)
30: Amaranth, Palmer plant response rating (0-100) [5, 28] | Amaranth, Palmer plant response rating (0-100) ([18]; 31 g ai/ha) | Barnyardgrass plant response rating (0-100) ([21]; 31 g ai/ha)
